Test results published in publication PMC11044151, “Development of Half-Sandwich Ru, Os, Rh, and Ir Complexes Bearing the Pyridine-2-ylmethanimine Bidentate Ligand Derived from 7-Chloroquinazolin-4(3H)-one with Enhanced Antiproliferative Activity” (ACS Omega, 2024).
Read-outs that look alike come from different tables or passages of the source.

Legend:
[1] = tested on: A549; assay: Neutral red uptake antiproliferative assay, A549; conditions: for IC50: read-out: IC50 A549, exposure time 72 h, n = 3, 95% CI given; for activity factor IC50(1)/IC50(3a–4d), A549: vs corresponding amine (R)-1 or (S)-1, 72 h
Excerpt: (§1) To assess the impact of conjugating half-sandwich complexes with amines 1 via an imine-pyridine ligand on biological activity, we examined the antiproliferative potential of (R)- and (S)-1 and organometallic conjugates 3a–d and 4a–d in selected human cancer cell lines: alveolar basal epithelial cell adenocarcinoma (A549), colorectal adenocarcinomas (Colo205 and SW620), colorectal carcinoma (HCT116), hepatocellular carcinoma (HepG2), and breast adenocarcinoma (MCF7). The choice of cell lines was dictated by results of previously published clinical trials on ispinesib.[49],[50]
(§2) Cell lines used in this study were purchased from the American Type Culture Collection via LGC Standards. Human normal lung fibroblasts (MRC-5), alveolar basal epithelial cell adenocarcinoma (A549), colorectal adenocarcinoma (Colo205), hepatocellular carcinoma (HepG2), breast adenocarcinoma (MCF7), and colorectal adenocarcinoma (SW620) and its MDR variants[55] were cultured in standard conditions (37 °C, 5% CO2, 100% relative humidity) in high glucose DMEM medium supplemented with GlutaMax, HEPES (ThermoFisher Scientific) and 10% fetal bovine serum (EURx, Poland). All cell lines were tested for Mycoplasma contamination using a MycoProbe mycoplasma detection kit (R&D System).
(§3) For this purpose, neutral red uptake assay was performed. 10^4 of cells were seeded per well of a 96-well plate and left overnight to allow cells to attach to the surface. Then, the cells were exposed to a desired concentration of tested compounds. Stock solutions were prepared in DMSO and were used immediately after preparation. The final concentration of DMSO was constant and nontoxic (0.1% v/v). After 70 h of culture, neutral red was added to the final concentration of 1 mM. After 2 h of incubation with the dye, the medium was aspirated and cells were washed with ice-cold PBS. The dye was released using 100 μL of the solubilizer (1% acetic acid in 50% ethanol) on an orbital shaker (10 min). The absorbance at 540 nm was measured using an EnVision multilabel plate reader (PerkinElmer). […] The IC90 and IC50 parameters were calculated using GraphPad Prism v9 software using the five-parameter nonlinear logistic regression model.

[2] = tested on: SW620; assay: Neutral red uptake antiproliferative assay, SW620; format: cell-based, human; conditions: for IC50: exposure time 72 h, n = 3, 95% CI given; for activity factor IC50(1)/IC50(3a–4d), SW620: vs corresponding amine (R)-1 or (S)-1, 72 h
Excerpt: as §1, §2, §3

[3] = tested on: SW620E; assay: Neutral red uptake antiproliferative assay, MDR line SW620E; format: cell-based, human; conditions: for IC50: exposure time 72 h, n = 3, ABCC1- and ABCB1-overexpressing MDR line; for activity factor IC50(1)/IC50(3a–4d), SW620E: vs corresponding amine (R)-1 or (S)-1, 72 h
Excerpt: (§4) Next, we evaluated the cytotoxicity of the synthesized complexes toward the panel of six multidrug-resistant (MDR) cell lines derived from SW620 and characterized by the overexpression of various ABC proteins, namely, ABCG2 (SW620C and SW620Mito), ABCC1 (SW620M and SW620E), and ABCB1 (SW620D, SW620E, and SW620V) (Table 3, Figures S29 and S32). […] The activity of the complexes derived from the ligand (S)-2 is also considerably higher than that of the compounds containing the ligand (R)-2. The cytotoxicity of both rhodium 4c and iridium 4d complexes is higher than that of amine (S)-1. In the case of 4c, the increase in cytotoxicity is low, with the highest value of 3.7-fold for the SW620Mito line. […] Compound 4d also exerts a 2.1- and 2.6-fold higher cytotoxicity than […] against the SW620C and SW620D lines.
(§5) For this purpose, neutral red uptake assay was performed. […] The results were presented as a percentage of control.

[4] = tested on: SW620Mito; assay: Neutral red uptake antiproliferative assay, MDR line SW620Mito; format: cell-based, human; conditions: for IC50: exposure time 72 h, n = 3, ABCG2-overexpressing MDR line; for activity factor IC50(1)/IC50(3a–4d), SW620Mito: vs corresponding amine (R)-1 or (S)-1, 72 h
Excerpt: as §4, §5

[5] = tested on: SW620 cells; assay: Cell cycle distribution by flow cytometry, SW620; format: cell-based, human; conditions: concentration equal to IC75 of (S)-1 / (R)-1, mean ± SEM, n = 3; for Cell cycle fraction G1, 24 h / Cell cycle fraction G2/M, 24 h / Cell cycle fraction S, 24 h: SW620, 24 h; for Cell cycle fraction G1, 48 h / Cell cycle fraction G2/M, 48 h / Cell cycle fraction S, 48 h: SW620, 48 h
Method: Ispinesib leads to the formation of monopolar mitotic spindles and a blockade of chromosome segregation in cancer cells. Using flow cytometry, we assessed the cell cycle distribution in the SW620 and SW620E cells exposed to the studied compounds for 24 and 48 h. […] Both complexes, 3c and 3d, decrease the percentage of cells in the G1/G0 phase and increase the percentage in the S and G2/M phases. […] Furthermore, prolonged exposure to the compounds increases the percentage of cells in the G2/M phase, with the most intensive effect observed for 3c and 3d.
SW620 and SW620E cells lines (vulnerable and resistant variants, respectively) were seeded in 6-well plates at a density of 10^5 cells per well. […] After 24 h, the cells were trypsinized and fixed with ice-cold 70% v/v ethanol. The cells were stained with 75 μM propidium iodide with 50 Kunitz units of RNase A in PBS for 30 min at 37 °C. All samples were analyzed using a LSRII flow cytometer (Becton Dickinson) at a PE channel ([…]). Cell cycle phase distribution was determined using a built-in cell cycle module (Watson pragmatic algorithm) by FlowJo 7.6.1 software.

[6] = Stability study in the presence of L-cysteine (UV-vis, HPLC-MS); format: physicochemical; conditions: 20 μM complex, 0.2 mM L-cysteine in water, 0.5 vol % DMSO, followed over 2 h
Excerpt: (§6) For biological studies, compounds are commonly administered as dimethyl sulfoxide (DMSO) solution to cells cultured in a specific medium such as Dulbecco’s modified Eagle’s medium (DMEM). DMEM consists of numerous organic compounds which may act as ligands for organometallics. Therefore, it is important to know how the compounds behave in such conditions. The two most prominent components of DMEM which may coordinate to half-sandwich complexes are L-cysteine and L-histidine. Both of those amino acids are present in DMEM at 0.2 mM concentration, so we studied how the complexes interact with them using UV–vis spectroscopy and HPLC-MS analysis. The DMSO solutions of complexes were added to the aqueous solution of L-cysteine or L-histidine to achieve a complex concentration of 20 μM while keeping the DMSO concentration at 0.5 vol %. […] HPLC-MS analysis confirmed the formation of an additional peak at τ = 0.95 min with m/z 714 assigned to [M-Cl-PF6 + HCOOH]^+; additionally, the intensity of peaks corresponding to 3c is lower (Figure S26). […] The intensity of absorbance peaks at λ = 287 and λ = 372 nm in the presence of cysteine is decreasing, while the intensity of peaks at λ = 304 and λ = 318 nm is almost intact.
(§7) The stability of 3a–d was studied in the presence of L-cysteine or L-histidine. 3a–d were dissolved in DMSO and added to 0.2 mM aqueous solution of L-cysteine or L-histidine to achieve the complex concentration of 20 μM while keeping the DMSO concentration at 0.5 vol %. UV–vis spectra were recorded over 2 h with 10 min intervals.

[7] = Stability study in the presence of L-histidine (UV-vis, HPLC-MS); format: physicochemical; conditions: 20 μM complex, 0.2 mM L-histidine in water, 0.5 vol % DMSO, followed over 2 h
Excerpt: as §6, §7

IC50 [1] [nM]	activity factor IC50(1)/IC50(3a–4d), A549 [1]	IC50 [2] [nM]	activity factor IC50(1)/IC50(3a–4d), SW620 [2]	IC50 [3] [nM]	activity factor IC50(1)/IC50(3a–4d), SW620E [3]	IC50 [4] [nM]	activity factor IC50(1)/IC50(3a–4d), SW620Mito [4]	Structure (SMILES)	increased cytotoxicity vs corresponding amine 1, A549 ([1]; rounded value) [fold]	Cell cycle fraction G1, 24 h [5] [%]	Cell cycle fraction G2/M, 24 h [5] [%]	Cell cycle fraction S, 24 h [5] [%]	Cell cycle fraction G1, 48 h [5] [%]	Cell cycle fraction G2/M, 48 h [5] [%]	Cell cycle fraction S, 48 h [5] [%]	reaction with L-cysteine (stability) [6]	reaction with L-histidine (stability) [7]	increased cytotoxicity vs corresponding amine 1, A549 [1] [fold]
1130	(1.96)	198	(0.485)	1020	(0.819)	268	(0.974)	CC(C)[C@@H](N=Cc1ccccn1)c1nc2cc(Cl)ccc2c(=O)n1Cc1ccccc1.Cc1c(C)c(C)[c-](C)c1C.F[P-](F)(F)(F)(F)F.[Cl-].[Ir+3] [Compound 3d, [(Cp*)Ir((R)-2)Cl]PF6]	2	30.8 ± 0.8	43.4 ± 1.5	25.4 ± 0.8	24.3 ± 1.2	55.9 ± 1.1	19.3 ± 0.4	reacts with both L-cysteine and L-histidine (Figure 6) in 40 min	reacts with both L-cysteine and L-histidine (Figure 6) in 40 min	
1040	(2.12)	556	(0.173)	3520	(0.237)	748	(0.349)	CC(C)[C@@H](N=Cc1ccccn1)c1nc2cc(Cl)ccc2c(=O)n1Cc1ccccc1.Cc1ccc(C(C)C)cc1.F[P-](F)(F)(F)(F)F.[Cl-].[Os+2] [Compound 3b, [(cym)Os((R)-2)Cl]PF6]		51.4 ± 1.2	35.3 ± 1.4	12.5 ± 2.1	41.4 ± 0.7	45.0 ± 0.5	12.7 ± 1.1	neither ruthenium 3a nor the osmium complex 3b reacts with those amino acids within 2 h	neither ruthenium 3a nor the osmium complex 3b reacts with those amino acids within 2 h	2
2450	(0.902)	1220	(0.079)	5520	(0.151)	4330	(0.060)	CC(C)[C@@H](N=Cc1ccccn1)c1nc2cc(Cl)ccc2c(=O)n1Cc1ccccc1.Cc1ccc(C(C)C)cc1.F[P-](F)(F)(F)(F)F.[Cl-].[Ru+2] [Compound 3a, [(cym)Ru((R)-2)Cl]PF6]		51.9 ± 1.0	32.5 ± 1.5	14.9 ± 0.6	44.8 ± 0.7	40.2 ± 1.1	14.3 ± 0.4	neither ruthenium 3a nor the osmium complex 3b reacts with those amino acids within 2 h	neither ruthenium 3a nor the osmium complex 3b reacts with those amino acids within 2 h	
1160	(1.90)	152	(0.632)	880	(0.949)	524	(0.498)	CC(C)[C@@H](N=Cc1ccccn1)c1nc2cc(Cl)ccc2c(=O)n1Cc1ccccc1.Cc1c(C)c(C)[c-](C)c1C.F[P-](F)(F)(F)(F)F.[Cl-].[Rh+3] [Compound 3c, [(Cp*)Rh((R)-2)Cl]PF6]	2	33.9 ± 2.5	40.9 ± 3.5	24.2 ± 1.4	23.1 ± 1.7	54.5 ± 1.8	20.8 ± 2.2	slowly reacts with L-cysteine	A similar effect is observed in the case of L-histidine	
